Data published in BindingDB's records for doi:10.1021/bi1011157 (Albert Einstein College of Medicine, 2010).

Molecular target: T1, Pyrazinamidase/nicotinamidase PncA (Mycobacterium tuberculosis, UniProt Q50575)
T1 sequence (Q50575 whole entry): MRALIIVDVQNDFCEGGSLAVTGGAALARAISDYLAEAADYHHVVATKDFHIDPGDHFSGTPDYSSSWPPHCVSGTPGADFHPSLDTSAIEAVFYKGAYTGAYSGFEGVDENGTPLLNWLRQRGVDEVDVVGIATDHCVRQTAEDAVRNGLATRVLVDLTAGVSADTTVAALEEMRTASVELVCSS
Assay: Enzyme Assay
Method: Enzyme activity measurement by a coupled assay. initial velocities for the reaction of MtPncA were determined by monitoring the loss of absorbance at 340 nm associated with oxidation of NADH to NAD by L-glutamic dehydrogenase (GDH) to produce glutamate from alpha-ketoglutarate.

N#Cc1cnccn1 [PncA Inhibitor, 6]
Ki: 61 µM

N#Cc1cccnc1 [PncA Inhibitor, 5]
Ki: 140 µM

O=C(c1cccnc1)C(F)(F)F [PncA Inhibitor, 3]
Ki: 420 µM

O=Cc1cccnc1 [PncA Inhibitor, 2]
Ki: 0.3 µM

OCc1cccnc1 [PncA Inhibitor, 4]
Ki: 63 µM

O=Cc1cnccn1 [PncA Inhibitor, 1]
Ki: 1.5 µM
